For the first assay, the system named is androgen receptor (AR) in LNCaP and/or VCaP cells. As to the kind of experiment: Androgen Receptor ELISA assay (AR degradation). The format is cell-based. The conditions noted are these: LNCaP and/or VCaP cells; 5 hours incubation; media with R1881; read-out: DC50 Code* (degradation of AR ELISA). A digest of the protocol: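 VCaP cells grown ≥3 days, then treated 5 h with compound in media containing 1 nM R1881 (10× stock). Cells lysed and AR quantified by sandwich ELISA (mouse AR detection Ab, HRP anti-mouse, TMB). DC50 and Dmax derived from AR degradation.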
`CC(C)N(CC1CN(c2cnc(C(=O)N[C@H]3CC[C@H](Oc4ccc(C#N)c(Cl)c4)CC3)cn2)C1)[C@H]1C[C@H](Oc2ccc3c(c2)C(=O)N(C2CCC(=O)NC2=O)C3=O)C1` (stereo partly shown) [Compound 37, N-((1r,4r)-4-(3-chloro-4-cyanophenoxy)cyclohexyl)-5-(3-((((1r,3r)-3-((2-(2,6-dioxopiperidin-3-yl)-1,3-dioxoisoindolin-5-yl)oxy)cyclobutyl) (isopropyl)amino)methyl)azetidin-1-yl)pyrazine-2-carboxamide]: the half-maximal degradation concentration (DC50) was less than 1 nM.
Regarding `COc1cc(O[C@H]2C[C@H](N(CC3CCN(c4ncc(C(=O)N[C@@H]5CC[C@H](Oc6cc(C)c(C#N)c(C)c6)C5)cn4)CC3)C(C)C)C2)cc2c1C(=O)N(C1CCC(=O)NC1=O)C2=O` (stereo partly drawn) [Compound 4, N-((1R,3S)-3-(4-cyano-3,5-dimethylphenoxy)cyclopentyl)-2-(4-((((1r,3R)-3-((2-(2,6-dioxopiperidin-3-yl)-7-methoxy-1,3-dioxoisoindolin-5-yl)oxy)cyclobutyl) (isopropyl)amino)methyl)piperidin-1-yl)pyrimidine-5-carboxamide], the DC50 is more than 100 nM.
With `COc1cc(O[C@H]2CC[C@H](NC(=O)c3cnc(N4CCC(CN(C(C)=O)[C@H]5C[C@H](Oc6ccc7c(c6)C(=O)N(C6CCC(=O)NC6=O)C7=O)C5)CC4)cn3)CC2)ccc1C#N` (stereo partly shown) [Compound 29, N-((1r,4r)-4-(4-cyano-3-methoxyphenoxy)cyclohexyl)-5-(4-((N-((1r,3r)-3-((2-(2,6-dioxopiperidin-3-yl)-1,3-dioxoisoindolin-5-yl)oxy)cyclobutyl)acetamido)methyl)piperidin-1-yl)pyrazine-2-carboxamide], the DC50 is less than 1 nM.
For the compound `Cc1cc(O[C@H]2CC[C@H](NC(=O)c3cnc(N4CCC(CN(C(C)C)[C@H]5C[C@H](Oc6ccc7c(c6)C(=O)N(C6CCC(=O)NC6=O)C7=O)C5)CC4)cn3)CC2)cc(C)c1C#N` (stereo partly shown) [Compound 25, N-((1r,4r)-4-(4-cyano-3,5-dimethylphenoxy)cyclohexyl)-5-(4-((((1r,3r)-3-((2-(2,6-dioxopiperidin-3-yl)-1,3-dioxoisoindolin-5-yl)oxy)cyclobutyl) (isopropyl)amino)methyl)piperidin-1-yl)pyrazine-2-carboxamide], the DC50 was less than 1 nM.
Still for that read-out and setting: with `CC(C)N(CC1CCN(c2ncc(C(=O)NC3CCC(Oc4ccc(C#N)c(Cl)c4)CC3)cn2)CC1)C1CCC(Oc2ccc3c(c2)C(=O)N(C2CCC(=O)NC2=O)C3=O)CC1` (stereo not shown) [Compound 59, N-((1r,4r)-4-(3-chloro-4-cyanophenoxy)cyclohexyl)-2-(4-((((1r,4r)-4-((2-(2,6-dioxopiperidin-3-yl)-1,3-dioxoisoindolin-5-yl)oxy)cyclohexyl) (isopropyl)amino)methyl)piperidin-1-yl)pyrimidine-5-carboxamide] the figure was less than 1 nM.

The assay is the same for the next values; noted with them: degradation of AR ELISA in LNCaP and/or VCaP cells; Table 2C; read-out: DC50 Code*.
As to `COc1cc(O[C@H]2C(C)(C)[C@H](NC(=O)c3cnc(N4CCC(CN(CCN5CCOCC5)[C@H]5C[C@H](Oc6ccc7c(c6)C(=O)N(C6CCC(=O)NC6=O)C7=O)C5)CC4)cn3)C2(C)C)ccc1C#N` (stereo partly shown) [compound 209, N-((1r,3r)-3-(4-cyano-3-methoxyphenoxy)-2,2,4,4-tetramethylcyclobutyl)-5-(4-((((1r,3r)-3-((2-(2,6-dioxopiperidin-3-yl)-1,3-dioxoisoindolin-5-yl)oxy)cyclobutyl)(2-morpholinoethyl)amino)methyl)piperidin-1-yl)pyrazine-2-carboxamide], the DC50 was less than 1 nM.
Consider `[2H]C([2H])([2H])Oc1cc(O[C@H]2C(C)(C)[C@H](NC(=O)c3ccc(N4CCC(CN(C(C)C)[C@H]5C[C@H](Oc6cc(OC([2H])([2H])[2H])c7c(c6)C(=O)N(C6CCC(=O)NC6=O)C7=O)C5)CC4)cc3)C2(C)C)ccc1C#N` (mixture of isomers) [compound 149, rac-N-((1r,3r)-3-(4-cyano-3-(methoxy-d3)phenoxy)-2,2,4,4-tetramethylcyclobutyl)-4-(4-((((1r,3r)-3-((2-(2,6-dioxopiperidin-3-yl)-7-(methoxy-d3)-1,3-dioxoisoindolin-5-yl)oxy)cyclobutyl) (isopropyl)amino)methyl)piperidin-1-yl)benzamide], for which the DC50 is less than 1 nM.
For `Cc1cc(O[C@H]2C(C)(C)[C@H](NC(=O)c3ccc(N4CCC(CN(C)[C@H]5C[C@H](Oc6ccc7c(c6)C(=O)N(C6CCC(=O)NC6=O)C7=O)C5)CC4)cc3)C2(C)C)cc(C)c1C#N` (mixture of isomers) [compound 186, rac-N-((1r,3r)-3-(4-cyano-3,5-dimethylphenoxy)-2,2,4,4-tetramethylcyclobutyl)-4-(4-((((1r,3r)-3-((2-(2,6-dioxopiperidin-3-yl)-1,3-dioxoisoindolin-5-yl)oxy)cyclobutyl) (methyl)amino)methyl)piperidin-1-yl)benzamide], the DC50 was less than 1 nM.
On the same count and under the same terms, as for `Cc1cc(O[C@H]2C(C)(C)[C@H](NC(=O)c3cnc(N4CCC(CN(C(C)C)[C@H]5C[C@H](Oc6ccc7c(c6)C(=O)N(C6CCC(=O)NC6=O)C7=O)C5)CC4)nc3C)C2(C)C)cc(C)c1C#N` (mixture of isomers) [compound 146, rac-N-((1r,3r)-3-(4-cyano-3,5-dimethylphenoxy)-2,2,4,4-tetramethylcyclobutyl)-2-(4-((((1r,3r)-3-((2-(2,6-dioxopiperidin-3-yl)-1,3-dioxoisoindolin-5-yl)oxy)cyclobutyl) (isopropyl)amino)methyl)piperidin-1-yl)-4-methylpyrimidine-5-carboxamide], the figure is less than 1 nM.
Turning to `CCN(C1CCN(c2ccc(C(=O)N[C@H]3C(C)(C)[C@H](Oc4cc(C)c(C#N)c(C)c4)C3(C)C)cc2)CC1)[C@H]1C[C@H](Oc2cc(OC)c3c(c2)C(=O)N(C2CCC(=O)NC2=O)C3=O)C1` (mixture of isomers) [compound 165, rac-N-((1r,3r)-3-(4-cyano-3,5-dimethylphenoxy)-2,2,4,4-tetramethylcyclobutyl)-4-(4-(((1r,3r)-3-((2-(2,6-dioxopiperidin-3-yl)-7-methoxy-1,3-dioxoisoindolin-5-yl)oxy)cyclobutyl) (ethyl)amino)piperidin-1-yl)benzamide], the DC50 is less than 1 nM.
Still for that read-out and setting: as for `CCN(C1CCN(c2ccc(C(=O)N[C@H]3C(C)(C)[C@H](Oc4cc(C)c(C#N)c(C)c4)C3(C)C)cc2)CC1)[C@H]1C[C@H](Oc2ccc3c(c2)C(=O)N(C2CCC(=O)NC2=O)C3=O)C1` (mixture of isomers) [compound 173, rac-N-((1r,3r)-3-(4-cyano-3,5-dimethylphenoxy)-2,2,4,4-tetramethylcyclobutyl)-4-(4-(((1r,3r)-3-((2-(2,6-dioxopiperidin-3-yl)-1,3-dioxoisoindolin-5-yl)oxy)cyclobutyl) (ethyl)amino)piperidin-1-yl)benzamide], the figure is less than 1 nM; as for `CC1(C)[C@H](NC(=O)c2ccc(N3CCC(CN4CCN(c5ccc6c(c5)C(=O)N(C5(F)CCC(=O)NC5=O)C6=O)CC4)CC3)cc2)C(C)(C)[C@H]1Oc1ccc(C#N)c(Cl)c1` (mixture of isomers) [compound 129, N-((1r,3r)-3-(3-chloro-4-cyanophenoxy)-2,2,4,4-tetramethylcyclobutyl)-4-(4-((4-(2-(3-fluoro-2,6-dioxopiperidin-3-yl)-1,3-dioxoisoindolin-5-yl)piperazin-1-yl)methyl)piperidin-1-yl)benzamide], 1 to 10 nM; as for `Cc1cc(O[C@H]2C(C)(C)[C@H](NC(=O)c3cnc(N4CCC(CN(C(C)C)[C@H]5C[C@H](Oc6cccc7c6C(=O)N(C6CCC(=O)NC6=O)C7=O)C5)CC4)nc3)C2(C)C)cc(C)c1C#N` (stereo partly shown) [compound 88, N-((1r,3r)-3-(4-cyano-3,5-dimethylphenoxy)-2,2,4,4-tetramethylcyclobutyl)-2-(4-((((1r,3r)-3-((2-(2,6-dioxopiperidin-3-yl)-1,3-dioxoisoindolin-4-yl)oxy)cyclobutyl) (isopropyl)amino)methyl)piperidin-1-yl)pyrimidine-5-carboxamide], less than 1 nM.
The same measure, in the same setting: with `COc1c(O[C@H]2C[C@H](N(CC3CCN(c4cnc(C(=O)N[C@H]5C(C)(C)[C@H](Oc6ccc(C#N)c(Cl)c6)C5(C)C)cn4)CC3)C(C)C)C2)ccc2c1CN(C1CCC(=O)NC1=O)C2=O` (stereo partly shown) [Compound 227, N-((1r,3r)-3-(3-chloro-4-cyanophenoxy)-2,2,4,4-tetramethylcyclobutyl)-5-(4-((((1r,3r)-3-((2-(2,6-dioxopiperidin-3-yl)-4-methoxy-1-oxoisoindolin-5-yl)oxy)cyclobutyl)(isopropyl)amino)methyl)piperidin-1-yl)pyrazine-2-carboxamide] the figure was less than 1 nM; with `COCCN(CC1CCN(c2ccc(C(=O)N[C@H]3C(C)(C)[C@H](Oc4ccc(C#N)c(Cl)c4)C3(C)C)cc2)CC1)[C@H]1C[C@H](Oc2cc(OC)c3c(c2)C(=O)N(C2CCC(=O)NC2=O)C3=O)C1` (stereo partly shown) [compound 105, N-((1r,3r)-3-(3-chloro-4-cyanophenoxy)-2,2,4,4-tetramethylcyclobutyl)-4-(4-((((1r,3r)-3-((2-(2,6-dioxopiperidin-3-yl)-7-methoxy-1,3-dioxoisoindolin-5-yl)oxy)cyclobutyl)(2-methoxyethyl)amino)methyl)piperidin-1-yl)benzamide], less than 1 nM; with `Cc1cc(O[C@H]2C(C)(C)[C@H](NC(=O)c3ccc(N4CC5(CC(CN(C(C)C)[C@H]6C[C@H](Oc7ccc8c(c7)C(=O)N(C7CCC(=O)NC7=O)C8=O)C6)C5)C4)nn3)C2(C)C)cc(C)c1C#N` (stereo partly shown) [compound 163, N-((1r,3r)-3-(4-cyano-3,5-dimethylphenoxy)-2,2,4,4-tetramethylcyclobutyl)-6-(6-((((1r,3r)-3-((2-(2,6-dioxopiperidin-3-yl)-1,3-dioxoisoindolin-5-yl)oxy)cyclobutyl) (isopropyl)amino)methyl)-2-azaspiro[3.3]heptan-2-yl)pyridazine-3-carboxamide], less than 1 nM.

As a reminder, the DC50 is the concentration giving 50% degradation.
